# Measured values: patent publication US9145403B2, “Heterocyclic alkanol derivatives” (Bayer Intellectual Property GmbH, priority 2010, dated 2015)
# Key:
# Leptosphaeria nodorum = Leptosphaeria nodorum test (wheat)/protective; type: in vivo; settings: young wheat plants sprayed at 500 ppm, inoculated 1 day after treatment, evaluation 7-9 days after inoculation; 0% = control, 100% = no infection
# Method: Leptosphaeria nodorum Test (Wheat)/Protective Solvent: 49 parts by weight of N,N-dimethyformamide Emulsifler: 1 part by weight of alkylaryl polyglycol ether To produce an appropriate active ingredient formulation, 1 part by weight of active ingredient is mixed with the specified amounts of solvent and emulsifler, and the concentrate is diluted with water to the desired concentration. To test for protective activity, young plants are sprayed with the formulation of active ingredient at the stated application rate. One day after the treatment, the plants are inoculated with an aqueous spore suspension of Leptosphaeria nodorum and then remain at 100% relative air humidity and 22° C. for 48 h. The plants are then placed in a greenhouse at 90% relative air humidity and a temperature of 22° C. Evaluation follows 7-9 days after the inoculation. 0% means an efficacy which corresponds to that of the control, whereas an efficacy of 100% means that no infection is observed. In this test, the following inventive compounds, at an active ingredient concentration of 500 ppm, show an efficacy of 70% or more.
# Alternaria solani = test: Alternaria test (tomato)/protective; type: in vivo; settings: young tomato plants sprayed at 500 ppm, inoculated 1 day after treatment, evaluation 7 days after inoculation; 0% = control, 100% = no infection
# Method: Alternaria Test (Tomato)/Protective Solvent: 49 parts by weight of N,N-dimethyformamide Emulsifier: 1 part by weight of alkylaryl polyglycol ether To produce an appropriate active ingredient formulation, 1 part by weight of active ingredient is mixed with the specified amounts of solvent and emulsifier, and the concentrate is diluted with water to the desired concentration. To test for protective activity, young tomato plants are sprayed with the formulation of active ingredient at the stated application rate. One day after the treatment, the plants are inoculated with a spore suspension of Alternaria solani and are then left at 100% relative humidity and 22° C. for 24 hours. The plants are then left at 96% relative air humidity and a temperature of 20° C. Evaluation follows 7 days after the inoculation. 0% means an efficacy which corresponds to that of the control, whereas an efficacy of 100% means that no infection is observed. In this test, the following inventive compounds, at an active ingredient concentration of 500 ppm, show an efficacy of 70% or more.
# Puccinia recondita = test: Puccinia test (wheat)/protective; type: in vivo; settings: young wheat plants sprayed at 500 ppm, inoculated 1 day after treatment, evaluation 7-9 days after inoculation; 0% = control, 100% = no infection
# Method: Puccinia Test (Wheat)/Protective Solvent: 49 parts by weight of N,N-dimethyformamide Emulsifier: 1 part by weight of alkylaryl polyglycol ether To produce an appropriate active ingredient formulation, 1 part by weight of active ingredient is mixed with the specified amounts of solvent and emulsifier, and the concentrate is diluted with water to the desired concentration. To test for protective activity, young plants are sprayed with the formulation of active ingredient at the stated application rate. One day after the treatment, the plants are inoculated with a spore suspension of Puccinia recondita and then left at 100% relative humidity and 22° C. for 48 h. The plants are then left at 80% relative air humidity and a temperature of 20° C. Evaluation follows 7-9 days after the inoculation. 0% means an efficacy which corresponds to that of the control, whereas an efficacy of 100% means that no infection is observed. In this test, the following inventive compounds, at an active ingredient concentration of 500 ppm, show an efficacy of 70% or more.
# Sphaerotheca fuliginea = test: Sphaerotheca test (cucumber)/protective; type: in vivo; settings: young cucumber plants sprayed at 500 ppm, inoculated 1 day after treatment, evaluation 7 days after inoculation; 0% = control, 100% = no infection
# Method: Table D: Sphaerotheca Test (Cucumber)/Protective Solvent: 49 parts by weight of N,N-dimethylformamide Emulsifier: 1 part by weight of alkylaryl polyglycol ether To produce an appropriate active ingredient formulation, 1 part by weight of active ingredient is mixed with the specified amounts of solvent and emulsifier, and the concentrate is diluted with water to the desired concentration. To test for protective activity, young cucumber plants are sprayed with the formulation of active ingredient at the stated application rate. 1 day after the treatment, the plants are inoculated with a spore suspension of Sphaerotheca fuliginea. The plants are then placed in a greenhouse at 70% relative air humidity and a temperature of 23° C. Evaluation follows 7 days after the inoculation. 0% means an efficacy which corresponds to that of the control, whereas an efficacy of 100% means that no infection is observed. In this test, the following inventive compounds, at an active ingredient concentration of 500 ppm, show an efficacy of 70% or more.
# [1] = log P by HPLC (EEC Directive 79/831 Annex V.A8), reversed-phase C18; type: physicochemical; settings: reversed-phase C18 HPLC column; method [a]: LC-MS, acidic range, pH 2.7, 0.1% aqueous formic acid/acetonitrile, linear gradient 10% to 95% acetonitrile
# Method: The log P values were measured in accordance with EEC Directive 79/831 Annex V.A8 by HPLC (High Performance Liquid Chromatography) using reversed-phase columns (C 18) by the following methods: [a] The LC-MS determination in the acidic range is effected at pH 2.7 with 0.1% aqueous formic acid and acetonitrile (contains 0.1% formic acid) as eluents; linear gradient from 10% acetonitrile to 95% acetonitrile.
chromatographic logP [1],Compound,Efficacy (%) (Leptosphaeria nodorum),Efficacy (%) (Alternaria solani),Efficacy (%) (Puccinia recondita),Efficacy (%) (Sphaerotheca fuliginea)
–,CC(C)(C)c1ncc(OCC(O)(c2cncs2)C(C)(C)C)cn1 (centres unmarked) [Compound 2],95%,–,–,–
–,CC(C)(C)C(O)(COc1ccc(Cl)nc1)c1cncs1 (centres unmarked) [Compound 3],–,89%,80%,80%
0.89,CC(C)(C)C(O)(COc1cccnc1)c1cncs1 (centres unmarked) [Compound 4],–,–,80%,–
1.4,CC(C)(C)C(O)(COc1cncnc1)c1cncs1 (centres unmarked) [Compound 6],70%,–,–,–
